Results reported in patent US20230020329A1, “Annelated 9-hydroxy-1,8-dioxo-1,3,4,8-tetrahydro-2H-pyrido[1,2-a]pyrazine-7-carboxamides as HIV integrase inhibitors, methods of preparation and application thereof” (priority 2019, published 2023).
Values after ≈ are worked out from the molar mass of the structure shown. Read-outs that look alike come from different tables or passages of the source.

How the values were obtained:
HIV-1 (IIIB strain) = assay: Anti-HIV cytoprotection assay (XTT), HIV-1 IIIB in CEM-SS cells; assay type: cell-based; conditions: CEM-SS cell line, read-out: Inhibitory activity (EC50) against HIV-1 (IIIB strain)
Method in brief: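 CEM-SS cells infected with a pre-titrated virus dose killing 85–95% of cells by day 6; protection from HIV-induced death read by XTT formazan. Compounds screened in triplicate at 30 and 10 nM, actives retested at 2 nM; AZT six-concentration curve on each plate as positive control.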

[1] = Thermodynamic (shake-flask) solubility; assay type: physicochemical; conditions: for solubility at 24 h: thermodynamic from solid
Experimental: The test compound of general formula 1 or 2 (2 mg) was weighed into a glass vial. The pION universal buffer (0.5 ml) with pH 7.4 or deionized water was added to appropriate vials. The vials were tightly closed with a lid, placed on a rotating shaker, and incubated for 24 hours to balance the solution and the solid phase at the saturation point. Each resulting solution (200 μl) was taken (in duplicate) from the vials, placed in a 96-well MultiScreen Solubility Filter Plate (Millipore), and filtered using vacuum ([…]) into a polypropylene plate with a U-shaped bottom. If necessary, the filtrates were diluted with an appropriate buffer (water). Then, 120 μl of the filtarate (or a diluted filtrate) was transferred to a 96-well plate with a UV-transparent bottom and 60 μl/well of acetonitrile and 20 μl/well of DMSO were added and thoroughly mixed with a multichannel pipette (acetonitrile and DMSO were added to obtain a required composition of calibration standards, as described below). The optical density of the resulting solutions was measured on a multifunction Infinite 200 PRO plate reader in the wavelength range from 240 nm to 400 nm in steps of 10 nm. The value of ODλ for solutions was assessed at a wavelength chosen for plotting a calibration curve.
The concentration of a substance in the solution after the solubility test was evaluated using a calibration curve. A stock solution in DMSO with a concentration of 2 mg/ml was prepared from a separate sample. […] The range of final concentrations of the calibration curve was 0.2; 0.1; 0.05; 0.025; 0.0125; 0.00625, and 0 mg/ml. Calibration solutions were prepared in a 96-well UV plate as follows: 20 μl of a 10-fold stock solution in DMSO, 60 μl of acetonitrile, and 120 μl of the appropriate buffer were added to the well and stirred. The optical density of the resulting solutions was measured on a multifunction Infinite 200 PRO plate reader in the wavelength range from 240 nm to 400 nm with a step of 10 nm. The optimal wavelength typically corresponding to the absorption maximum was chosen, and a linear dependence of OD at a given wavelength on the concentration of the compound was obtained.
The concentration of the compound in the filtrate after the solubility test was calculated according to the formula:
shake-flask solubility=(ODλfiltrate−ODλblank)/(slope×1.67×filtrate dilution)
wherein slope means the slope of the calibration curve; 1.67 is the filtrate acetonitrile+DMSO dilution ratio; filtrate dilution is an additional dilution of the filtrate, if applicable.

[2] = tested on: HIV-1 (NL4.3 strain) carrying the GFP reporter gene (NL4.3-GFP); assay: HIV-1 NL4.3-GFP infection of SupT1 cells; assay type: cell-based; conditions: Human immunodeficiency virus 1, SUP-T1, read-out: Inhibitory activity (EC50) of HIV-1 (NL4.3 strain) carrying the GFP reporter gene
Experimental: 6. Inhibitory Activity of HIV-1 (NL4.3 Strain) Carrying the GFP Reporter Gene (NL4.3-GFP) in the SuPT1 Cell Line.
The evaluation was done by RetroVirox Inc. (San Diego, Calif., USA). SupT1 cells were infected with the HIV NL4.3 strain carrying the green fluorescent protein gene (NL4.3-GFP). The virus sample was produced by transfection of 293T cells with proviral DNA. The sample was frozen 48 hours after transfection and stored until use. To enhance the efficiency of infection, a suspension of SupT1 cells was precipitated from the infectious mixture by centrifugation. Test substances were added to the cells immediately before adding the virus. After 2 hours of incubation, the infectious mixture was replaced with a fresh culture medium containing test samples. The effectiveness of the infection was determined after 45 hours by counting the percentage of fluorescent cells in comparison with uninfected cell cultures. The cytotoxicity of the test compounds was determined in parallel on the same, but not infected, SupT1 cell line using the XTT reagent. Serial tenfold dilutions of the samples (starting from 10 μM when determining antiviral activity or from 100 μM for determining cytotoxicity). As a negative control, 0.1% DMSO was used. The values of EC50 were calculated. The quality of the tests was determined using the following controls: signal-to-noise ratio, integrase inhibitor raltegravir (1 μM), and test reproducibility.

HIV = conditions: depending on the method of analysis; read-out: Inhibitory activity EC50 (literature); cited from earlier work
[3] = Human immunodeficiency virus 1, IIIB, CEM-SS
[4] = aqueous buffer, pION universal buffer pH 7.4, 24 h, read-out: Solubility, pH 7.4, value
[5] = deionized water, 24 h, read-out: Solubility, water, value
[6] = deionized water, water, read-out: Solubility in water

SMILES | EC50 (HIV-1 (IIIB strain); [3]) [nM] | solubility at 24 h [1, 4] [mg/mL] | solubility at 24 h [1, 5] [mg/mL] | Solubility, water, value ([1]; deionized water, 24 h) [mg/mL] | solubility at 24 h [1, 6] [mg/mL] | EC50 [2] [nM] | EC50 (HIV-1 (IIIB strain)) [nM] | EC50 (HIV) [nM]
C[C@H]1CO[C@@H]2Cn3cc(C(=O)NCc4nc5ccccc5s4)c(=O)c(O)c3C(=O)N12 [Compound 1.1.37, (3S,11aR)-N-(1,3-benzothiazol-2-ylmethyl)-6-hydroxy-3-methyl-5,7-dioxo-2,3,5,7,11,11a-hexahydro[1,3]oxazolo[3,2-a]pyrido[1,2-d]pyrazine-8-carboxamide] | 1.93 | 0.021 (≈ 49.2 µM) | 0.021 (≈ 49.2 µM) | – | – | – | – | –
C[C@H]1CO[C@@H]2Cn3cc(C(=O)NCc4cccc5cccnc45)c(=O)c(O)c3C(=O)N12 [Compound 1.1.54, (3S,11aR)-6-hydroxy-3-methyl-N-(quinolin-8-ylmethyl)-5,7-dioxo-2,3,5,7,11,11a-hexahydro[1,3]oxazolo[3,2-a]pyrido[1,2-d]pyrazine-8-carboxamide] | 2.17 | 0.006 (≈ 14.3 µM) | 0.01 (≈ 23.8 µM) | – | – | – | – | –
C[C@H]1CO[C@@H]2Cn3cc(C(=O)NCc4cccs4)c(=O)c(O)c3C(=O)N12 [Compound 1.1.1, (3S,11aR)-6-hydroxy-3-methyl-5,7-dioxo-N-(2-thienylmethyl)-2,3,5,7,11,11a-hexahydro[1,3]oxazolo[3,2-a]pyrido[1,2-d]pyrazine-8-carboxamide] | 1.44 | 0.024 (≈ 63.9 µM) | 0.033 (≈ 87.9 µM) | – | – | – | – | –
C[C@H]1CO[C@@H]2Cn3cc(C(=O)NCc4ccc5nonc5c4)c(=O)c(O)c3C(=O)N12 [Compound 1.1.48, (3S,11aR)-N-(2,1,3-benzoxadiazol-5-ylmethyl)-6-hydroxy-3-methyl-5,7-dioxo-2,3,5,7,11,11a-hexahydro[1,3]oxazolo[3,2-a]pyrido[1,2-d]pyrazine-8-carboxamide] | 0.43 | 0.0032 (≈ 7.78 µM) | – | 0.00285 (≈ 6.93 µM) | 0.00285 (≈ 6.93 µM) | – | – | –
Cc1cc(CNC(=O)c2cn3c(c(O)c2=O)C(=O)N2[C@@H](C)CO[C@@H]2C3)c2ccccc2n1 [Compound 1.1.51, (3S,11aR)-6-hydroxy-3-methyl-N-(2-methylquinolin-4-ylmethyl)-5,7-dioxo-2,3,5,7,11,11a-hexahydro[1,3]oxazolo[3,2-a]pyrido[1,2-d]pyrazine-8-carboxamide] | 2 to 10 | 0.008 (≈ 18.4 µM) | 0.031 (≈ 71.4 µM) | – | – | – | – | –
C[C@H]1CO[C@@H]2Cn3cc(C(=O)NCc4ncccc4F)c(=O)c(O)c3C(=O)N12 [Compound 1.1.16, (3S,11aR)-6-hydroxy-3-methyl-N-[(3-fluoropyridin-2-yl)methyl]-5,7-dioxo-2,3,5,7,11,11a-hexahydro[1,3]oxazolo[3,2-a]pyrido[1,2-d]pyrazine-8-carboxamide] | 10 to 30 | – | – | – | – | 10.5 | – | –
C[C@H]1CO[C@@H]2Cn3cc(C(=O)NCc4nccc5ccccc45)c(=O)c(O)c3C(=O)N12 [Compound 1.1.55, (3S,11aR)-6-hydroxy-N-(isoquinolin-1-ylmethyl)-3-methyl-5,7-dioxo-2,3,5,7,11,11a-hexahydro[1,3]oxazolo[3,2-a]pyrido[1,2-d]pyrazine-8-carboxamide] | 2 to 10 | – | – | – | – | 14.5 | – | –
C[C@H]1CO[C@@H]2Cn3cc(C(=O)NCc4c(F)cncc4F)c(=O)c(O)c3C(=O)N12 [Compound 1.1.24, (3S,11aR)-6-hydroxy-N-[(3,5-difluoropyridin-4-yl)methyl]-3-methyl-5,7-dioxo-2,3,5,7,11,11a-hexahydro[1,3]oxazolo[3,2-a]pyrido[1,2-d]pyrazine-8-carboxamide] | 2.63 | 0.38 (≈ 935 µM) | 0.347 (≈ 854 µM) | – | – | – | – | –
C[C@@H]1CCO[C@H]2Cn3cc(C(=O)NCc4ccc(F)nc4F)c(=O)c(O)c3C(=O)N12 [Compound 1.2.1, (4R,12aS)-7-hydroxy-N-[(2,6-difluoropyridin-3-yl)methyl]-4-methyl-6,8-dioxo-3,4,6,8,12,12a-hexahydro-2H-pyrido[1′,2′:4,5]pyrazino[2,1-b][1,3]oxazine-9-carboxamide] | 5.15 | 0.08 (≈ 190 µM) | 0.057 (≈ 136 µM) | – | – | – | – | –
C[C@H]1CO[C@@H]2Cn3cc(C(=O)NCc4nn(C)c(Cl)c4Cl)c(=O)c(O)c3C(=O)N12 [Compound 1.1.7, (3S,11aR)-6-hydroxy-N-[(4,5-dichloro-1-methyl-1H-pyrazol-3-yl)methyl]3-methyl-5,7-dioxo-2,3,5,7,11,11a-hexahydro[1,3]oxazolo[3,2-a]pyrido[1,2-d]pyrazine-8-carboxamide] | 0.59 | 0.318 (≈ 719 µM) | 0.318 (≈ 719 µM) | – | – | – | – | –
C[C@H]1CO[C@@H]2Cn3cc(C(=O)NCc4ccncc4F)c(=O)c(O)c3C(=O)N12 [Compound 1.1.23, (3S,11aR)-6-hydroxy-3-methyl-N-[(3-fluoropyridin-4-yl)methyl]-5,7-dioxo-2,3,5,7,11,11a-hexahydro[1,3]oxazolo[3,2-a]pyrido[1,2-d]pyrazine-8-carboxamide] | 10 to 30 | 0.091 (≈ 234 µM) | 0.078 (≈ 201 µM) | – | – | – | – | –
C[C@H]1CO[C@@H]2Cn3cc(C(=O)NCc4ccc(F)nc4F)c(=O)c([O-])c3C(=O)N12.[Na+] [Compound 1.1.20, Sodium (3S,11aR)-8-({[(2,6-difluoropyridin-3-yl)methyl]amino}carbonyl)-3-methyl-5,7-dioxo-2,3,5,7,11,11a-hexahydro[1,3]oxazolo[3,2-a]pyrido[1,2-d]pyrazin-6-olate] | – | 1.68 | – | 2.679 | 2.68 | – | 4.8 | –
C[C@@H]1CCO[C@H]2Cn3cc(C(=O)NCc4ccc(F)cc4F)c(=O)c(O)c3C(=O)N12 [DTG, Dolutegravir] | – | – | – | – | – | – | – | 1.1 to 7.4
Cc1cc2c(cc1CNC(=O)c1cn3c(c(O)c1=O)C(=O)N1[C@@H](C)CO[C@@H]1C3)OCCO2 [Compound 1.1.36, (3S,11aR)-6-hydroxy-3-methyl-N-[(7-methyl-2,3-dihydro-1,4-benzodioxin-6-yl)methyl]-5,7-dioxo-2,3,5,7,11,11a-hexahydro[1,3]oxazolo[3,2-a]pyrido[1,2-d]pyrazine-8-carboxamide] | 10 to 30 | 0.07 (≈ 159 µM) | 0.056 (≈ 127 µM) | – | – | – | – | –
